The values below come from ChEMBL document CHEMBL3886800, “Disubstituted 3,4-diamino-3-cyclobutene-1,2-dione compounds for use in the treatment of chemokine-mediated diseases” (2016).

pIC50: −log10 of the molar value.

The target in assay [1] is T1, C-X-C chemokine receptor type 1 (Homo sapiens, UniProt P25024).
T1 sequence (P25024 whole entry): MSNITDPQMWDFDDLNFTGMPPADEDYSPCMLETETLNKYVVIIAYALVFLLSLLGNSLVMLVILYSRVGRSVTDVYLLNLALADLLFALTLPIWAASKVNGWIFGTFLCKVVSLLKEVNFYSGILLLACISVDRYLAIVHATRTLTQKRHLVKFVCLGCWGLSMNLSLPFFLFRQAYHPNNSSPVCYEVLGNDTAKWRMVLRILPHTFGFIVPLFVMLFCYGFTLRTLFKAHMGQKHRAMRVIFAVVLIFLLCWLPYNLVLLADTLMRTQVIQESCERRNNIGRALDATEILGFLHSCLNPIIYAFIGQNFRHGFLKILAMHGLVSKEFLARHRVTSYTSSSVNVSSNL
Description: (§1) In Vitro Affinity Assay: ⿿PathHunter HEK293-CXCR2⿝ or ⿿U2OS hCXCR1 β-arrestin⿝ cells (DiscoveRx Corporation) were seeded overnight at 10 000 cells/well (384-well format) in 20 μl of Opti MEM I medium. A preincubation with the antagonist or the vehicle for 30 min at 37° C. and 5% CO2 was followed by 60 minutes of stimulation with CXCL8 at 37° C. and 5% CO2. The cells were then placed at ambient temperature for 30 minutes. The PathHunter detection reagent (DiscoveRx Corporation) was added. After incubation for 60 min at ambient temperature, the […] during the β-arrestin-CXCR2 interaction was measured for 0.3 s in an Envision 2102 Multilabel Reader (PerkinElmer Life and Analytical Sciences).

Assay [2] deals with T2, C-X-C chemokine receptor type 2 (Homo sapiens, UniProt P25025).
T2 sequence (P25025 whole entry): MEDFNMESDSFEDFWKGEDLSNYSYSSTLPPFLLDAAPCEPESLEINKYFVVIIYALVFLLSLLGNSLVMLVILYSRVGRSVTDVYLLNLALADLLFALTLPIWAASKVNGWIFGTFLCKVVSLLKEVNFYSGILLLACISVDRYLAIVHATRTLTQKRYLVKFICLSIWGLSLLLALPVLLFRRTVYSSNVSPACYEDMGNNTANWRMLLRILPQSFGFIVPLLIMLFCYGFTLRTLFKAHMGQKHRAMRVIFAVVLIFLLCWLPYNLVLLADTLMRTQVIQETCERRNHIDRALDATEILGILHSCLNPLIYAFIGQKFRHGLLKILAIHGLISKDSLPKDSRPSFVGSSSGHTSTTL
Described as §1.

The pIC50 is the IC50 on a negative log10 scale, so that one unit is a factor of ten. In the case of `Cc1ccc(C(Nc2c(Nc3cccnc3O)c(=O)c2=O)C2CCCS2)o1` (centres undefined), the figures for the pIC50 in assay [1] and in assay [2] were 6.19 and 7.64, respectively.

On to `Cc1ccc(C(Nc2c(Nc3ccc(Cl)c(C(=O)N(C)C)c3O)c(=O)c2=O)C2CCCS2)o1` (single isomer, unassigned), for which the pIC50 is 6.95 in assay [1] and 7.16 in assay [2].
